Measurements taken from patent US9029391B2 (priority 2011, dated 2015).

The compounds below were run on HIV (assay: MT4 Assay (anti-HIV activity)). Conditions: Human immunodeficiency virus 1, 96 h, read-out: HIV MT4 Assay IC50, HTLV-1 transformed cell line MT-4, cell titer glo, 10 point dose response curve.
Type: cell-based
Description: Antiviral HIV activity and cytotoxicity values for compounds of the invention from Table 1 were measured in parallel in the HTLV-1 transformed cell line MT-4 based on the method previously described (Hazen et al., 2007, In vitro antiviral activity of the novel, tyrosyl-based human immunodeficiency virus (HIV) type 1 protease inhibitor brecanavir (GW640385) in combination with other antiretrovirals and against a panel of protease inhibitor-resistant HIV (Hazen et al., “In vitro antiviral activity of the novel, tyrosyl-based human immunodeficiency virus (HIV) type 1 protease inhibitor brecanavir (GW640385) in combination with other antiretrovirals and against a panel of protease inhibitor-resistant HIV”, Antimicrob. Agents Chemother. 2007, 51: 3147-3154; and Pauwels et al., “Sensitive and rapid assay on MT-4 cells for the detection of antiviral compounds against the AIDS virus”, J. of Virological Methods 1987, 16: 171-185).
Luciferase activity was measured 96 hours later by adding a cell titer glo (Promega, Madison, Wis.). Percent inhibition of cell protection data was plotted relative to no compound control. Under the same condition, cytotoxicity of the compounds was determined using cell titer glo (Promega, Madison, Wis.). IC50s were determined from a 10 point dose response curve using 3-4-fold serial dilution for each compound, which spans a concentration range >1000 fold.

Structure (SMILES) | IC50 [nM]
Cc1c(-c2c([C@H](OC3(C)CCC3)C(=O)O)n(C)c(=O)c3ccccc23)cc(F)c2c1CCCO2 (atropisomer, axis not shown; (M)) [Example 163, (2S)(M)-2-[4-(8-fluoro-5-methyl-3,4-dihydro-2H-1-benzopyran-6-yl)-2-methyl-1-oxo-1,2-dihydroisoquinolin-3-yl]-2-(1-methylcyclobutoxy)acetic acid] | 110
Cc1c(-c2c([C@H](OC(C)(C)C)C(=O)O)n(C)c(=O)c3cc(Br)ccc23)cc(F)c2c1CCCO2 (atropisomer, axis not shown; (M)) [Example 164, (2S)(M)-[7-bromo-4-(8-fluoro-5-methyl-3,4-dihydro-2H-chromen-6-yl)-2-methyl-1-oxo-1,2-dihydro-3-isoquinolinyl][(1,1-dimethylethyl)oxy]ethanoic acid] | 460
Cc1c(-c2c([C@H](OC(C)(C)C)C(=O)O)n(C)c(=O)c3cc(Nc4ccc(Cl)c(F)c4)ccc23)cc(F)c2c1CCCO2 (atropisomer, axis not shown; (M)) [Example 165, (2S)(M)-[7-[(4-chloro-3-fluorophenyl)amino]-4-(8-fluoro-5-methyl-3,4-dihydro-2H-chromen-6-yl)-2-methyl-1-oxo-1,2-dihydro-3-isoquinolinyl][(1,1-dimethylethyl)oxy]ethanoic acid] | 100
Cc1c(-c2c([C@H](OC(C)(C)C)C(=O)O)n(C)c(=O)c3cc(N4CCCCC4)ccc23)cc(F)c2c1CCCO2 (atropisomer, axis not shown; (M)) [Example 166, (2S)(M)-[(1,1-dimethylethyl)oxy][4-(8-fluoro-5-methyl-3,4-dihydro-2H-chromen-6-yl)-2-methyl-1-oxo-7-(1-piperidinyl)-1,2-dihydro-3-isoquinolinyl]ethanoic acid] | 20
Cc1c(-c2c([C@H](OC(C)(C)C)C(=O)O)n(C)c(=O)c3cc(N4CCS(=O)(=O)CC4)ccc23)cc(F)c2c1CCCO2 (atropisomer, axis not shown; (M)) [Example 167, (2S)(M)-[(1,1-dimethylethyl)oxy][7-(1,1-dioxido-4-thiomorpholinyl)-4-(8-fluoro-5-methyl-3,4-dihydro-2H-chromen-6-yl)-2-methyl-1-oxo-1,2-dihydro-3-isoquinolinyl]ethanoic acid] | 3710
Cc1c(-c2c([C@H](OC(C)(C)C)C(=O)O)n(C)c(=O)c3cc(N4CCOCC4)ccc23)cc(F)c2c1CCCO2 (atropisomer, axis not shown; (M)) [Example 168, (S)(M)-2-(tert-butoxy)-2-(4-(8-fluoro-5-methylchroman-6-yl)-2-methyl-7-morpholino-1-oxo-1,2-dihydroisoquinolin-3-yl)acetic acid] | 260
Cc1c(-c2c([C@H](OC(C)(C)C)C(=O)O)n(C)c(=O)c3cc(C(=O)N4CCOCC4)ccc23)cc(F)c2c1CCCO2 (atropisomer, axis not shown; (M)) [Example 169, (S)(M)-2-(tert-butoxy)-2-(4-(8-fluoro-5-methylchroman-6-yl)-2-methyl-7-(morpholine-4-carbonyl)-1-oxo-1,2-dihydroisoquinolin-3-yl)acetic acid] | 22500
Cc1cccc(-c2ccc3c(-c4cc(F)c5c(c4C)CCCO5)c([C@H](OC(C)(C)C)C(=O)O)n(C)c(=O)c3c2)n1 (atropisomer, axis not shown; (M)) [Example 173, (2S)(M)-[(1,1-dimethylethyl)oxy][4-(8-fluoro-5-methyl-3,4-dihydro-2H-chromen-6-yl)-2-methyl-7-(6-methyl-2-pyridinyl)-1-oxo-1,2-dihydro-3-isoquinolinyl]ethanoic acid] | 120

Same assay, conditions: read-out: HIV MT4 Assay IC50; HTLV-1 transformed cell line MT-4; 96 hours; cell titer glo; 10 point dose response curve

Structure (SMILES) | IC50 [nM]
Cc1c(-c2c([C@H](OC(C)(C)C)C(=O)O)n(C)c(=O)c3ccccc23)cc(F)c2c1CCCO2 (atropisomer, axis not shown; (M)) [Example 159, (2S)(M)-2-(tert-butoxy)-2-(4-(8-fluoro-5-methylchroman-6-yl)-2-methyl-1-oxo-1,2-dihydroisoquinolin-3-yl)acetic acid] | 30
